{
  "source": "PubChem BioAssay AID1745844",
  "about": "(Carcinogenic Potency Database (CPDB), 2022)",
  "test_system": "rodent lifetime carcinogenesis bioassay, tumor incidence TD50",
  "test": "chronic cancer bioassays in animals – CPDB, compiled studies (AID 1745844)",
  "note": "Calls of active or inactive are those of the source. The rule behind the calls is not given here.",
  "data": [
    {"smiles": "CC1=CC(=O)CC(C)(C)C1", "values": [
      {"measurement": "carcinogen call", "setting": "mouse, strain B6C3F1, females, by gavage, site: any site (literature study), lesion: several types, types named in the paper, dosed 103 weeks, study length 104 weeks", "value": "negative (inactive)"},
      {"measurement": "TD50", "setting": "mouse, strain B6C3F1, females, by gavage, site: liver, lesion: hepatocellular adenoma + hepatocellular carcinoma + neoplastic nodule, dosed 103 weeks, study length 104 weeks", "value": 2740, "unit": "mg/kg/day"},
      {"measurement": "TD50", "setting": "mouse, strain B6C3F1, males, by gavage, site: all sites, lesion: leukemia, NOS + malignant lymphoma, histiocytic type + malignant lymphoma, mixed type + malignant lymphoma, lymphocytic type, dosed 103 weeks, study length 104 weeks", "value": 236, "unit": "mg/kg/day"},
      {"measurement": "TD50", "setting": "mouse, strain B6C3F1, males, by gavage, site: all sites, lesion: malignant lymphoma, histiocytic type + malignant lymphoma, mixed type + malignant lymphoma, lymphocytic type, dosed 103 weeks, study length 104 weeks", "value": 203, "unit": "mg/kg/day"},
      {"measurement": "TD50", "setting": "mouse, strain B6C3F1, males, by gavage, site: all sites, lesion: malignant lymphoma, histiocytic type, dosed 103 weeks, study length 104 weeks", "value": 244, "unit": "mg/kg/day"},
      {"measurement": "TD50", "setting": "mouse, strain B6C3F1, males, by gavage, site: liver, lesion: hepatocellular adenoma + hepatocellular carcinoma + neoplastic nodule, dosed 103 weeks, study length 104 weeks", "value": 573, "unit": "mg/kg/day"},
      {"measurement": "TD50", "setting": "mouse, strain B6C3F1, males, by gavage, site: liver, lesion: hepatocellular adenoma + hepatocellular carcinoma, dosed 103 weeks, study length 104 weeks", "value": 573, "unit": "mg/kg/day"},
      {"measurement": "TD50", "setting": "mouse, strain B6C3F1, males, by gavage, site: skin + subcutaneous tissue, lesion: fibroma + fibrosarcoma, dosed 103 weeks, study length 104 weeks", "value": 840, "unit": "mg/kg/day"},
      {"measurement": "TD50", "setting": "mouse, strain B6C3F1, males, by gavage, site: skin + subcutaneous tissue, lesion: fibroma + neurofibrosarcoma + fibrosarcoma + sarcoma, dosed 103 weeks, study length 104 weeks", "value": 882, "unit": "mg/kg/day"},
      {"measurement": "TD50", "setting": "mouse, strain B6C3F1, males, by gavage, site: skin + subcutaneous tissue, lesion: neurofibrosarcoma + fibrosarcoma + sarcoma, dosed 103 weeks, study length 104 weeks", "value": 1210, "unit": "mg/kg/day"},
      {"measurement": "TD50", "setting": "mouse, strain B6C3F1, males, by gavage, site: subcutaneous tissue, lesion: fibroma, dosed 103 weeks, study length 104 weeks", "value": 1210, "unit": "mg/kg/day"},
      {"measurement": "TD50", "setting": "mouse, strain B6C3F1, males, by gavage, site: subcutaneous tissue, lesion: fibrosarcoma + fibroma + neurofibrosarcoma + sarcoma, dosed 103 weeks, study length 104 weeks", "value": 703, "unit": "mg/kg/day"},
      {"measurement": "TD50", "setting": "mouse, strain B6C3F1, males, by gavage, site: subcutaneous tissue, lesion: fibrosarcoma + fibroma, dosed 103 weeks, study length 104 weeks", "value": 654, "unit": "mg/kg/day"},
      {"measurement": "TD50", "setting": "mouse, strain B6C3F1, males, by gavage, site: subcutaneous tissue, lesion: fibrosarcoma + neurofibrosarcoma + sarcoma, dosed 103 weeks, study length 104 weeks", "value": 1260, "unit": "mg/kg/day"},
      {"measurement": "TD50", "setting": "mouse, strain B6C3F1, males, by gavage, site: subcutaneous tissue, lesion: fibrosarcoma, dosed 103 weeks, study length 104 weeks", "value": 1170, "unit": "mg/kg/day"},
      {"measurement": "TD50", "setting": "rat, strain Fischer 344, females, by gavage, site: any site (literature study), lesion: several types, types named in the paper, dosed 103 weeks, study length 105 weeks", "value": "16600 mg/kg/day (inactive)"},
      {"measurement": "TD50", "setting": "rat, strain Fischer 344, males, by gavage, site: any site (literature study), lesion: several types, types named in the paper, dosed 103 weeks, study length 105 weeks", "value": 237, "unit": "mg/kg/day"},
      {"measurement": "TD50", "setting": "rat, strain Fischer 344, males, by gavage, site: kidney + preputial gland, lesion: tubular-cell adenoma + tubular-cell adenocarcinoma + carcinoma, NOS, dosed 103 weeks, study length 105 weeks", "value": 774, "unit": "mg/kg/day"},
      {"measurement": "TD50", "setting": "rat, strain Fischer 344, males, by gavage, site: kidney, lesion: tubular-cell adenoma + tubular-cell adenocarcinoma, dosed 103 weeks, study length 105 weeks", "value": 1210, "unit": "mg/kg/day"},
      {"measurement": "TD50", "setting": "rat, strain Fischer 344, males, by gavage, site: liver, lesion: hepatocellular adenoma + hepatocellular carcinoma + neoplastic nodule, dosed 103 weeks, study length 105 weeks", "value": 9080, "unit": "mg/kg/day"},
      {"measurement": "TD50", "setting": "rat, strain Fischer 344, males, by gavage, site: preputial gland, lesion: carcinoma, NOS, dosed 103 weeks, study length 105 weeks", "value": 2250, "unit": "mg/kg/day"}
    ]},
    {"smiles": "Cc1ccc([N+](=O)[O-])cc1N", "values": [
      {"measurement": "TD50", "setting": "mouse, strain B6C3F1, females, in feed, site: all sites + liver, lesion: hemangiosarcoma + hepatocellular carcinoma, dosed 78 weeks, study length 96 weeks", "value": 242, "unit": "mg/kg/day"},
      {"measurement": "TD50", "setting": "mouse, strain B6C3F1, females, in feed, site: all sites, lesion: hemangiosarcoma, dosed 78 weeks, study length 96 weeks", "value": 1860, "unit": "mg/kg/day"},
      {"measurement": "TD50", "setting": "mouse, strain B6C3F1, females, in feed, site: any site (literature study), lesion: several types, types named in the paper, dosed 78 weeks, study length 96 weeks", "value": 989, "unit": "mg/kg/day"},
      {"measurement": "TD50", "setting": "mouse, strain B6C3F1, females, in feed, site: liver, lesion: hepatocellular adenoma + hepatocellular carcinoma + neoplastic nodule, dosed 78 weeks, study length 96 weeks", "value": 288, "unit": "mg/kg/day"},
      {"measurement": "TD50", "setting": "mouse, strain B6C3F1, females, in feed, site: liver, lesion: hepatocellular carcinoma, dosed 78 weeks, study length 96 weeks", "value": 288, "unit": "mg/kg/day"},
      {"measurement": "TD50", "setting": "mouse, strain B6C3F1, males, in feed, site: all sites + liver, lesion: hemangioma + hemangiosarcoma + hepatocellular carcinoma, dosed 78 weeks, study length 95 weeks", "value": 269, "unit": "mg/kg/day"},
      {"measurement": "TD50", "setting": "mouse, strain B6C3F1, males, in feed, site: all sites, lesion: hemangioma + hemangiosarcoma, dosed 78 weeks, study length 95 weeks", "value": 2550, "unit": "mg/kg/day"},
      {"measurement": "TD50", "setting": "mouse, strain B6C3F1, males, in feed, site: any site (literature study), lesion: several types, types named in the paper, dosed 78 weeks, study length 95 weeks", "value": 431, "unit": "mg/kg/day"},
      {"measurement": "TD50", "setting": "mouse, strain B6C3F1, males, in feed, site: liver, lesion: hepatocellular adenoma + hepatocellular carcinoma + neoplastic nodule, dosed 78 weeks, study length 95 weeks", "value": 266, "unit": "mg/kg/day"},
      {"measurement": "TD50", "setting": "mouse, strain B6C3F1, males, in feed, site: liver, lesion: hepatocellular carcinoma, dosed 78 weeks, study length 95 weeks", "value": 266, "unit": "mg/kg/day"},
      {"measurement": "carcinogen call", "setting": "rat, strain Fischer 344, females, in feed, site: any site (literature study), lesion: several types, types named in the paper, dosed 78 weeks, study length 108 weeks", "value": "negative (inactive)"},
      {"measurement": "TD50", "setting": "rat, strain Fischer 344, females, in feed, site: liver, lesion: hepatocellular adenoma + hepatocellular carcinoma + neoplastic nodule, dosed 78 weeks, study length 108 weeks", "value": 43, "unit": "mg/kg/day"},
      {"measurement": "TD50", "setting": "rat, strain Fischer 344, males, in feed, site: any site (literature study), lesion: several types, types named in the paper, dosed 78 weeks, study length 107 weeks", "value": 43.7, "unit": "mg/kg/day"},
      {"measurement": "TD50", "setting": "rat, strain Fischer 344, males, in feed, site: liver, lesion: hepatocellular carcinoma, dosed 78 weeks, study length 107 weeks", "value": "27.7 mg/kg/day (inactive)"}
    ]},
    {"smiles": "CC(=O)Nc1ccc2c(c1)Cc1cc(NC(C)=O)ccc1-2", "values": [
      {"measurement": "TD50", "setting": "monkey, strain Cynomolgus [Macaca fascicularis], both sexes, in feed, site: breast, lesion: carcinoma, dosed 258 weeks, study length 1513 weeks", "value": 307, "unit": "mg/kg/day"},
      {"measurement": "TD50", "setting": "monkey, strain Cynomolgus [Macaca fascicularis], both sexes, in feed, site: lung, lesion: alveolar/bronchiolar carcinoma, dosed 258 weeks, study length 1513 weeks", "value": 25.6, "unit": "mg/kg/day"}
    ]},
    {"smiles": "CC(C)(CCCOc1ccc(OCCCC(C)(C)C(=O)O)c(-c2ccccc2)c1)C(=O)O", "values": [
      {"measurement": "TD50", "setting": "mouse, strain B6C3F1, females, in feed, site: liver, lesion: hepatocellular adenoma, dosed 104 weeks, study length 104 weeks", "value": 90.6, "unit": "mg/kg/day"},
      {"measurement": "TD50", "setting": "mouse, strain B6C3F1, females, in feed, site: liver, lesion: hepatocellular carcinoma, dosed 104 weeks, study length 104 weeks", "value": 402, "unit": "mg/kg/day"},
      {"measurement": "TD50", "setting": "mouse, strain B6C3F1, females, in feed, site: liver, lesion: several types, types named in the paper, dosed 104 weeks, study length 104 weeks", "value": 72.3, "unit": "mg/kg/day"},
      {"measurement": "TD50", "setting": "mouse, strain B6C3F1, males, in feed, site: liver, lesion: hepatocellular adenoma, dosed 104 weeks, study length 104 weeks", "value": 107, "unit": "mg/kg/day"},
      {"measurement": "TD50", "setting": "mouse, strain B6C3F1, males, in feed, site: liver, lesion: hepatocellular carcinoma, dosed 104 weeks, study length 104 weeks", "value": 167, "unit": "mg/kg/day"},
      {"measurement": "TD50", "setting": "mouse, strain B6C3F1, males, in feed, site: liver, lesion: several types, types named in the paper, dosed 104 weeks, study length 104 weeks", "value": 45, "unit": "mg/kg/day"}
    ]}
  ]
}
